Reference: EP0041644B1 (priority 1980, dated 1981)

Key:
L1210 Leukemia [1] = assay: L1210 Leukemia - Test 3 (vehicle comparison); assay type: in vivo, mice; details: for Effect MST % T/C / MST Days: Day 1 only
Lewis Lung Carcinoma = Lewis Lung Carcinoma - Test 1 (ip, delayed therapy); assay type: in vivo, mice
B16 Melanoma [2] = assay: B16 Melanoma - Test 3 (sc trocar fragments); assay type: in vivo, mice
L1210 Leukemia [3] = assay: L1210 Leukemia - Test 2; assay type: in vivo, mice
[4] = water
B16 Melanoma [5] = assay: B16 Melanoma - Test 2 (ip tumor brei); assay type: in vivo, mice; details: QD +9

[NH2][Pt]1([NH2])[O]C(=O)C([O-])C(=O)[O]1.[Na+] [Example 3, 2-Hydroxymalonato diammine platinum (II), sodium salt]
Effect MST % T/C (L1210 Leukemia [1]; 10 mg/kg ip, vehicle H2O): 114 % T/C | MST Days (L1210 Leukemia [1]; 10 mg/kg ip, vehicle H2O): 8.0 days | Effect MST % T/C (L1210 Leukemia [1]; 10 mg/kg ip, vehicle Saline): 100 % T/C | MST Days (L1210 Leukemia [1]; 10 mg/kg ip, vehicle Saline): 7.0 days | Effect MST % T/C (L1210 Leukemia [1]; 20 mg/kg ip, vehicle H2O): 143 % T/C | MST Days (L1210 Leukemia [1]; 20 mg/kg ip, vehicle H2O): 10.0 days | Effect MST % T/C (L1210 Leukemia [1]; 20 mg/kg ip, vehicle Saline): 100 % T/C | MST Days (L1210 Leukemia [1]; 20 mg/kg ip, vehicle Saline): 7.0 days | Effect MST % T/C (L1210 Leukemia [1]; 40 mg/kg ip, vehicle H2O): 129 % T/C | MST Days (L1210 Leukemia [1]; 40 mg/kg ip, vehicle H2O): 9.0 days | Effect MST % T/C (L1210 Leukemia [1]; 40 mg/kg ip, vehicle Saline): 114 % T/C | MST Days (L1210 Leukemia [1]; 40 mg/kg ip, vehicle Saline): 8.0 days | Effect MST % T/C (L1210 Leukemia [1]; 60 mg/kg ip, vehicle H2O): 143 % T/C | MST Days (L1210 Leukemia [1]; 60 mg/kg ip, vehicle H2O): 10.0 days | Effect MST % T/C (L1210 Leukemia [1]; 60 mg/kg ip, vehicle Saline): 114 % T/C | MST Days (L1210 Leukemia [1]; 60 mg/kg ip, vehicle Saline): 8.0 days | Effect MST % T/C (L1210 Leukemia [1]; 80 mg/kg ip, vehicle H2O): 143 % T/C | MST Days (L1210 Leukemia [1]; 80 mg/kg ip, vehicle H2O): 10.0 days | Effect MST % T/C (L1210 Leukemia [1]; 80 mg/kg ip, vehicle Saline): 143 % T/C | MST Days (L1210 Leukemia [1]; 80 mg/kg ip, vehicle Saline): 10.0 days | Effect MST % T/C (L1210 Leukemia [1]; 100 mg/kg ip, vehicle H2O): 143 % T/C | MST Days (L1210 Leukemia [1]; 100 mg/kg ip, vehicle H2O): 10.0 days | Effect MST % T/C (L1210 Leukemia [1]; 100 mg/kg ip, vehicle Saline): 129 % T/C | MST Days (L1210 Leukemia [1]; 100 mg/kg ip, vehicle Saline): 9.0 days | Maximum increase in median lifespan (T/C) (L1210 Leukemia [1]; single dose ip, saline and water as vehicles): 143% | Effect MST %TC (Lewis Lung Carcinoma; 4 mg/kg/inj ip, qd 5→13): 120 %TC | MST Days (Lewis Lung Carcinoma; 4 mg/kg/inj ip, qd 5→13): 15.0 days | Effect MST %TC (Lewis Lung Carcinoma; 8 mg/kg/inj ip, qd 5→13): 140 %TC | MST Days (Lewis Lung Carcinoma; 8 mg/kg/inj ip, qd 5→13): 17.5 days | Effect MST %TC (Lewis Lung Carcinoma; 12 mg/kg/inj ip, qd 5→13): 148 %TC | MST Days (Lewis Lung Carcinoma; 12 mg/kg/inj ip, qd 5→13): 18.5 days | Effect MST %TC (Lewis Lung Carcinoma; 16 mg/kg/inj ip, qd 5→13): 160 %TC | MST Days (Lewis Lung Carcinoma; 16 mg/kg/inj ip, qd 5→13): 20.0 days | Effect MST %TC (Lewis Lung Carcinoma; 20 mg/kg/inj ip, d. 5,9&13): 124 %TC | MST Days (Lewis Lung Carcinoma; 20 mg/kg/inj ip, d. 5,9&13): 15.5 days | Effect MST %TC (Lewis Lung Carcinoma; 20 mg/kg/inj iv, d. 5,9&13): 100 %TC | MST Days (Lewis Lung Carcinoma; 20 mg/kg/inj iv, d. 5,9&13): 12.5 days | Effect MST %TC (Lewis Lung Carcinoma; 40 mg/kg/inj ip, d. 5,9&13): 148 %TC | MST Days (Lewis Lung Carcinoma; 40 mg/kg/inj ip, d. 5,9&13): 18.5 days | Effect MST %TC (Lewis Lung Carcinoma; 40 mg/kg/inj iv, d. 5,9&13): 108 %TC | MST Days (Lewis Lung Carcinoma; 40 mg/kg/inj iv, d. 5,9&13): 13.5 days | Effect MST %TC (Lewis Lung Carcinoma; 60 mg/kg/inj ip, d. 5,9&13): 196 %TC | MST Days (Lewis Lung Carcinoma; 60 mg/kg/inj ip, d. 5,9&13): 24.5 days | Effect MST %TC (Lewis Lung Carcinoma; 60 mg/kg/inj iv, d. 5,9&13): 132 %TC | MST Days (Lewis Lung Carcinoma; 60 mg/kg/inj iv, d. 5,9&13): 16.5 days | Effect MST %TC (Lewis Lung Carcinoma; 80 mg/kg/inj ip, d. 5,9&13): 268 %TC | MST Days (Lewis Lung Carcinoma; 80 mg/kg/inj ip, d. 5,9&13): 33.5 days | Effect MST %TC (Lewis Lung Carcinoma; 80 mg/kg/inj iv, d. 5,9&13): 148 %TC | MST Days (Lewis Lung Carcinoma; 80 mg/kg/inj iv, d. 5,9&13): 18.5 days | long-term survivors (day 48) (Lewis Lung Carcinoma; given ip, at maximum T/C): 2 to 6 | maximum T/C (Lewis Lung Carcinoma; given ip, therapy from day 5): 268% | T/C (Lewis Lung Carcinoma; given iv, therapy from day 5): 148% | Effect MST %TC (B16 Melanoma [2]; 8 mg/kg/inj ip, qd 1→9): 102 %TC | MST Days (B16 Melanoma [2]; 8 mg/kg/inj ip, qd 1→9): 31.0 days | Effect MST %TC (B16 Melanoma [2]; 12 mg/kg/inj ip, qd 1→9): 92 %TC | MST Days (B16 Melanoma [2]; 12 mg/kg/inj ip, qd 1→9): 28.0 days | Effect MST %TC (B16 Melanoma [2]; 16 mg/kg/inj ip, qd 1→9): 125 %TC | MST Days (B16 Melanoma [2]; 16 mg/kg/inj ip, qd 1→9): 38.0 days | Effect MST %TC (B16 Melanoma [2]; 20 mg/kg/inj iv, d.1, 5&9): 93 %TC | MST Days (B16 Melanoma [2]; 20 mg/kg/inj iv, d.1, 5&9): 28.5 days | Effect MST %TC (B16 Melanoma [2]; 24 mg/kg/inj ip, qd 1→9): TOX | MST Days (B16 Melanoma [2]; 24 mg/kg/inj ip, qd 1→9): TOX | Effect MST %TC (B16 Melanoma [2]; 40 mg/kg/inj iv, d.1, 5&9): 108 %TC | MST Days (B16 Melanoma [2]; 40 mg/kg/inj iv, d.1, 5&9): 33.0 days | Effect MST %TC (B16 Melanoma [2]; 60 mg/kg/inj iv, d.1, 5&9): 108 %TC | MST Days (B16 Melanoma [2]; 60 mg/kg/inj iv, d.1, 5&9): 33.0 days | Effect MST %TC (B16 Melanoma [2]; 80 mg/kg/inj iv, d.1, 5&9): TOX | MST Days (B16 Melanoma [2]; 80 mg/kg/inj iv, d.1, 5&9): TOX | Effect MST %TC (B16 Melanoma [2]; 100 mg/kg/inj iv, d.1, 5&9): TOX | MST Days (B16 Melanoma [2]; 100 mg/kg/inj iv, d.1, 5&9): TOX | T/C (B16 Melanoma [2]; given ip, sc-implanted B16 melanoma): 125% | maximum T/C (B16 Melanoma [2]; given iv, sc-implanted B16 melanoma): not active | Effect MST % T/C (L1210 Leukemia [3]; 4 mg/kg/inj ip, qd 1→9): 100 % T/C | MST Days (L1210 Leukemia [3]; 4 mg/kg/inj ip, qd 1→9): 7.0 days | Effect MST % T/C (L1210 Leukemia [3]; 8 mg/kg/inj ip, qd 1→9): 114 % T/C | MST Days (L1210 Leukemia [3]; 8 mg/kg/inj ip, qd 1→9): 8.0 days | Effect MST % T/C (L1210 Leukemia [3]; 16 mg/kg/inj ip, qd 1→9): 157 % T/C | MST Days (L1210 Leukemia [3]; 16 mg/kg/inj ip, qd 1→9): 11.0 days | Effect MST % T/C (L1210 Leukemia [3]; 20 mg/kg/inj iv, d.1, 5&9): 100 % T/C | MST Days (L1210 Leukemia [3]; 20 mg/kg/inj iv, d.1, 5&9): 7.0 days | Effect MST % T/C (L1210 Leukemia [3]; 24 mg/kg/inj ip, qd 1→9): 207 % T/C | MST Days (L1210 Leukemia [3]; 24 mg/kg/inj ip, qd 1→9): 14.5 days | Effect MST % T/C (L1210 Leukemia [3]; 40 mg/kg/inj ip, d.1): 114 % T/C | MST Days (L1210 Leukemia [3]; 40 mg/kg/inj ip, d.1): 8.0 days | Effect MST % T/C (L1210 Leukemia [3]; 40 mg/kg/inj iv, d.1): 100 % T/C | MST Days (L1210 Leukemia [3]; 40 mg/kg/inj iv, d.1): 7.0 days | Effect MST % T/C (L1210 Leukemia [3]; 40 mg/kg/inj iv, d.1, 5&9): 107 % T/C | MST Days (L1210 Leukemia [3]; 40 mg/kg/inj iv, d.1, 5&9): 7.5 days | Effect MST % T/C (L1210 Leukemia [3]; 60 mg/kg/inj ip, d.1): 121 % T/C | MST Days (L1210 Leukemia [3]; 60 mg/kg/inj ip, d.1): 8.5 days | Effect MST % T/C (L1210 Leukemia [3]; 60 mg/kg/inj iv, d.1): 100 % T/C | MST Days (L1210 Leukemia [3]; 60 mg/kg/inj iv, d.1): 7.0 days | Effect MST % T/C (L1210 Leukemia [3]; 60 mg/kg/inj iv, d.1, 5&9): 143 % T/C | MST Days (L1210 Leukemia [3]; 60 mg/kg/inj iv, d.1, 5&9): 10.0 days | Effect MST % T/C (L1210 Leukemia [3]; 80 mg/kg/inj iv, d.1, 5&9): 100 % T/C | MST Days (L1210 Leukemia [3]; 80 mg/kg/inj iv, d.1, 5&9): 7.0 days | Effect MST % T/C (L1210 Leukemia [3]; 90 mg/kg/inj ip, d.1): 143 % T/C | MST Days (L1210 Leukemia [3]; 90 mg/kg/inj ip, d.1): 10.0 days | Effect MST % T/C (L1210 Leukemia [3]; 90 mg/kg/inj iv, d.1): 107 % T/C | MST Days (L1210 Leukemia [3]; 90 mg/kg/inj iv, d.1): 7.5 days | Effect MST % T/C (L1210 Leukemia [3]; 120 mg/kg/inj ip, d.1): 136 % T/C | MST Days (L1210 Leukemia [3]; 120 mg/kg/inj ip, d.1): 9.5 days | Effect MST % T/C (L1210 Leukemia [3]; 120 mg/kg/inj iv, d.1): 100 % T/C | MST Days (L1210 Leukemia [3]; 120 mg/kg/inj iv, d.1): 7.0 days | maximum T/C (L1210 Leukemia [3]; iv, multi-dose regimen): 143% | maximum T/C (L1210 Leukemia [3]; multi-dose therapy ip (qd 1→9)): 207-214% | maximum T/C (L1210 Leukemia [3]; single ip doses, ip L1210): 143% | Solubility in H2O at 22-25°C [4]: > 100 mg/mL | Average Weight Change (B16 Melanoma [5]; 2 mg/kg/day ip): -1.5 g | Effect MST % T/C (B16 Melanoma [5]; 2 mg/kg/day ip): 160 % T/C | MST Days (B16 Melanoma [5]; 2 mg/kg/day ip): 33.0 days | Average Weight Change (B16 Melanoma [5]; 4 mg/kg/day ip): -2.8 g | Effect MST % T/C (B16 Melanoma [5]; 4 mg/kg/day ip): 168 % T/C | MST Days (B16 Melanoma [5]; 4 mg/kg/day ip): 34.5 days | Average Weight Change (B16 Melanoma [5]; 8 mg/kg/day ip): -3.2 g | Effect MST % T/C (B16 Melanoma [5]; 8 mg/kg/day ip): 163 % T/C | Average Weight Change (B16 Melanoma [5]; 16 mg/kg/day ip): -2.9 g | Effect MST % T/C (B16 Melanoma [5]; 16 mg/kg/day ip): 185 % T/C | MST Days (B16 Melanoma [5]; 16 mg/kg/day ip): 38.0 days | Survivors Day 10 (60) (B16 Melanoma [5]; Day 10, 8 mg/kg/day ip): 9/10 | Survivors Day 10 (60) (B16 Melanoma [5]; Day 60 (figure in parentheses), 16 mg/kg/day ip): 1
